# Data taken from patent US20240360146A1, “BRUTON'S TYROSINE KINASE AND MUTANT DEGRADER, COMPOSITION AND APPLICATION THEREOF” (HANGZHOU HEALZEN THERAPEUTICS CO., LTD., priority 2021, published 2024).
# Target: T1, BTK (Homo sapiens, UniProt Q06187)
# T1 construct: endogenous in cells; host or cells: Mino cells
# Experiment: BTK degradation activity test in Mino cells
# Type: cell-based
# Conditions: 16 h incubation, Western blot or Elisa
# Method: Mino cell line cells were seeded at 500,000 to 1,000,000 cells/well in a 6-well plate. The compounds were diluted to different concentrations and added to the plate, and after 16 h of incubation, cells were harvested. After lysing the cells, the total protein concentration in each well was determined using the BCA method. The amount of BTK was determined using Western blot or Elisa method. The amount of undegraded BTK protein at each drug concentration was compared with the amount of BTK protein in the blank control group to calculate the degradation rate. The degradation curve was drawn based on the degradation rate at each concentration, and the half degradation concentration (DC50) was calculated by fitting.
# T1 sequence (Q06187 whole entry): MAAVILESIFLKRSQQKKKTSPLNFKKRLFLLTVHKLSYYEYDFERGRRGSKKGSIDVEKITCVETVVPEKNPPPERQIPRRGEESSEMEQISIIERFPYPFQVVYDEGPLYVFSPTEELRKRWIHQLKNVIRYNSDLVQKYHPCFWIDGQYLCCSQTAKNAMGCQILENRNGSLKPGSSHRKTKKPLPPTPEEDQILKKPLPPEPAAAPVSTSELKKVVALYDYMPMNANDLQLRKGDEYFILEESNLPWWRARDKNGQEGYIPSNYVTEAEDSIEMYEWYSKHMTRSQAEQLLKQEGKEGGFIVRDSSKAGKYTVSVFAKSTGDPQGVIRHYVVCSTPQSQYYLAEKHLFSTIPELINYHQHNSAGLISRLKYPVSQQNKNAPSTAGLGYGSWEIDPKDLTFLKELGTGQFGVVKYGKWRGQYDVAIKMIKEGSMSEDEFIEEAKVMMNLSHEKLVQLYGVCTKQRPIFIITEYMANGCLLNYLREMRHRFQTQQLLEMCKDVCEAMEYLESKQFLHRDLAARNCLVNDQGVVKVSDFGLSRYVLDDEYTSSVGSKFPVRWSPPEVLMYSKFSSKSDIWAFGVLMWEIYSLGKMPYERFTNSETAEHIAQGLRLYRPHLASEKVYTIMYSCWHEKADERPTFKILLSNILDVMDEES
row,SMILES,DC50
1,"CN1CCN([C@@H]2CCCN(c3nnc(C(N)=O)c(Nc4ccc(N5CCN(CC6CCN(c7ccc8c9c([nH]c8c7)C(=O)N(C7CCC(=O)NC7=O)C9)C6)CC5)c(F)c4)n3)C2)C1=O (stereo partly drawn) [Compound 220, 5-((4-(4-((1-(2-(2,6-dioxopiperidin-3-yl)-3-oxo-1,2,3,4-tetrahydropyrrolo[3,4-b]indol-6-yl)pyrrolidin-3-yl)methyl)piperazin-1-yl)-3-fluorophenyl)amino)-3-((R)-3-(3-methyl-2-oxoimidazolidin-1-yl)piperidin-1-yl)-1,2,4-triazin-6-carboxamide]",< 1 nM
2,NC(=O)c1ncc(N2CCCC(N3CCN(C4COC4)C3=O)C2)nc1Nc1ccc(N2CCC3(CC2)CC(N2CCN(c4ccc5c(c4)C(=O)N(C4CCC(=O)NC4=O)C5=O)CC2)C3)cc1 (stereo not shown) [Compound 019],> 1 nM
3,"CN1C(=O)N(C2CCCN(c3cnc(C(N)=O)c(Nc4ccc(C5(C)CCN(C6CN(c7ccc8c(c7)C(=O)N(C7CCC(=O)NC7=O)C8=O)C6)CC5)cc4)n3)C2)CC12CCC2 (stereo not shown) [Compound 011, 3-((4-(1-(1-(2-(2,6-dioxopiperidin-3-yl)-1,3-dioxoisoindol-5-yl)azetidin-3-yl)-4-methylpiperidin-4-yl)phenyl)amino)-5-(3-(5-methyl-6-oxo-5,7-diazaspirocyclo[3.4]octan-7-yl)piperidin-1-yl)pyrazin-2-carboxamide]",< 1 nM
4,"CN1CCN([C@@H]2CCCN(c3nnc(C(N)=O)c(Nc4ccc(N5CCN(C#Cc6ccc(C(=O)NC7CCC(=O)NC7=O)c(F)c6)CC5)c(F)c4)n3)C2)C1=O (stereo partly drawn) [Compound 225, 5-((4-(4-((4-((2,6-dioxopiperidin-3-yl)carbamoyl)-3-fluorophenyl)ethynyl)piperazin-1-yl)-3-fluorophenyl)amino)-3-((R)-3-(3-methyl-2-oxoimidazolidin-1-yl)piperidin-1-yl)-1,2,4-triazin-6-carboxamide]",< 1 nM
5,"NC(=O)c1ncc(N2CCCC(N3CCN(C4COC4)C3=O)C2)nc1Nc1ccc2c(c1)CCN(CC1CCN(c3ccc4c(c3)C(=O)N(C3CCC(=O)NC3=O)C4=O)CC1)C2 (stereo not shown) [Compound 031, 3-((2-((1-(2-(2,6-dioxopiperidin-3-yl)-1,3-dioxoisoindol-5-yl)piperidin-4-yl)methyl)-1,2,3,4-tetrahydroisoquinolin-6-yl)amino)-5-(3-(3-(oxetan-3-yl)-2-oxoimidazolin-1-yl)piperidin-1-yl)pyrazin-2-carboxamide]",< 1 nM
6,"CN1C(=O)N(C2CCCN(c3cnc(C(N)=O)c(Nc4ccc(C5CCN(CC6CCN(c7ccc8c(c7)C(=O)N(C7CCC(=O)NC7=O)C8=O)C6)CC5)cc4)n3)C2)CC12CC2 (stereo not shown) [Compound 044, 3-((4-(1-((1-(2-(2,6-dioxopiperidin-3-yl)-1,3-dioxoisoindolin-5-yl)pyrrolidin-3-yl)methyl)piperidin-4-yl)phenyl)amino)-5-(3-(4-methyl-5-oxo-4,6-diazaspiro[2.4]cycloheptan-6-yl)piperidin-1-yl)pyrazin-2-carboxamide]",< 1 nM
7,"NC(=O)c1ncc(N2CCCC(N3CCN(C4COC4)C3=O)C2)nc1Nc1ccc2c(c1)CCN(CC1CN(c3ccc4c(c3)C(=O)N(C3CCC(=O)NC3=O)C4=O)C1)C2 (stereo not shown) [Compound 032, 3-((2-((1-(2-(2,6-dioxopiperidin-3-yl)-1,3-dioxoisoindol-5-yl)azetidine-3-yl)methyl)-1,2,3,4-tetrahydroisoquinolin-6-yl)amino)-5-(3-(3-(oxetan-3-yl)-2-oxyimidazolin-1-yl)piperidin-1-yl)pyrazin-2-carboxamide]",< 1 nM
8,"CC1(c2ccc(Nc3nc(N4CCCC(N5CC6CCCN6C5=O)C4)cnc3C(N)=O)cc2)CCN(C2CN(c3ccc4c(c3)C(=O)N(C3CCC(=O)NC3=O)C4=O)C2)CC1 (stereo not shown) [Compound 005, 3-((4-(1-(1-(2-(2,6-dioxopiperidin-3-yl)-1,3-dioxoisoindol-5-yl)azetidin-3-yl)-4-methylpiperidin-4-yl)phenyl)amino)-5-(3-(3-oxotetrahydro-1H-pyrrolo[1,2-c]imidazo 1-2(3H)-yl)piperidin-1-yl)pyrazin-2-carboxamide]",< 1 nM
9,"CN1CCN([C@@H]2CCCN(c3nnc(C(N)=O)c(Nc4ccc(N5CCN(CC6CCN(c7ccc(C(=O)NC8CCC(=O)NC8=O)c8[nH]cnc78)C6)CC5)c(F)c4)n3)C2)C1=O (stereo partly drawn) [Compound 178, 4-(3-((4-(4-((6-carbamoyl-3-((R)-3-(3-methyl-2-oxoimidazolidin-1-yl)piperidin-1-yl)-1,2,4-triazin-5-yl)amino)-2-fluorophenyl)piperazin-1-yl)methyl)pyrrolidin-1-yl)-N-(2,6-dioxopiperidin-3-yl)-1Hbenzimidazol-7-carboxamide]",< 1 nM
10,"CN1CCN(C2CCCN(c3nnc(C(N)=O)c(Nc4ccc(C5CCN(CC6CCN(c7ccc8c(c7)C(=O)N(C7CCC(=O)NC7=O)C8=O)C6)CC5)cc4)n3)C2)C1=O (stereo not shown) [Compound 076, 5-((4-(1-((1-(2-(2,6-dioxopiperidin-3-yl)-1,3-dioxoisooctyl-5-yl)pyrrolidin-3-yl)methyl)piperidin-4-yl)phenyl)amino)-3-(3-(3-methyl-2-oxoimidazolin-1-yl)piperidin-1-yl)-1,2,4-triazin-6-carboxamide]",< 1 nM
11,"COc1cc(C(N)=O)c(Nc2ccc(C3(C)CCN(CC4CCN(c5ccc6c(c5)C(=O)N(C5CCC(=O)NC5=O)C6=O)C4)CC3)cc2)nc1N1CCCC(N2CCN(C)C2=O)C1 (stereo not shown) [Compound 038, 2-((4-(1-((1-(2-(2,6-dioxopiperidin-3-yl)-1,3-dioxoisoindolin-5-yl)pyrrolidin-3-yl)methyl)-4-methylpiperidin-4-yl)phenyl)amino)-5-methoxy-6-(3-(3-methyl-2-oxoimidazolin-1-yl)piperidin-1-yl)nicotinamide]",< 1 nM
12,"CN1CCN(C2CCCN(c3nnc(C(N)=O)c(Nc4ccc(C5(C)CCN(C6CN(c7ccc8c(c7)C(=O)N(C7CCC(=O)NC7=O)C8=O)C6)CC5)cc4)n3)C2)C1=O (stereo not shown) [Compound 079, 5-((4-(1-(1-(2-(2,6-dioxopiperidin-3-yl)-1,3-dioxoisoindol-5-yl)azetidin-3-yl)-4-methylpiperidin-4-yl)phenyl)amino)-3-(3-(3-methyl-2-oxoimidazolin-1-yl)piperidin-1-yl)-1,2,4-triazin-6-carboxamide]",< 1 nM
13,"CC1(c2ccc(Nc3nc(N4CCCC(N5CCN(C6CCCC6)C5=O)C4)cnc3C(N)=O)cc2)CCN(C2CN(c3ccc4c(=O)n(C5CCC(=O)NC5=O)ccc4c3)C2)CC1 (stereo not shown) [Compound 023, 5-(3-(3-cyclopentyl-2-oxoimidazolin-1-yl)piperidin-1-yl)-3-((4-(1-(1-(2-(2,6-dioxopiperidin-3-yl)-1-oxo-1,2-dihydroisoquinolin-6-yl)azetidin-3-yl)-4-methylpiperidin-4-yl)phenyl)amino)pyrazin-2-carboxamide]",> 1 nM
14,"NC(=O)c1ncc(N2CCCC(N3CC4CCCCN4C3=O)C2)nc1Nc1ccc(C2CCN(CC3CCN(c4ccc5c(c4)C(=O)N(C4CCC(=O)NC4=O)C5=O)C3)CC2)cc1 (stereo not shown) [Compound 045, 3-((4-(1-((1-(2-(2,6-dioxopiperidin-3-yl)-1,3-dioxoisoindolin-5-yl)pyrrolidin-3-yl)methyl)piperidin-4-yl)phenyl)amino)-5-(3-(3-oxohexahydroimidazo[1,5-a]pyridin-2(3H)-yl)piperidin-1-yl)pyrazin-2-carboxamide]",< 1 nM
15,"NC(=O)c1ncc(N2CCCC(N3CCN(C4CCCC4)C3=O)C2)nc1Nc1ccc(C(=O)C2CCN(CC3CCN(c4ccc5c(c4)C(=O)N(C4CCC(=O)NC4=O)C5=O)CC3)CC2)cc1 (stereo not shown) [Compound 028, 5-(3-(3-cyclopentyl-2-oxoimidazolin-1-yl)piperidin-1-yl)-3-((4-(1-((1-(2-(2,6-dioxopiperidin-3-yl)-1,3-dioxoisoindolin-5-yl)piperidin-4-yl)methyl)piperidin-4-formyl)phenyl)amino)pyrazin-2-carboxamide]",> 1 nM
16,"CN1CCN(C2CC3CC2N(c2nnc(C(N)=O)c(Nc4ccc(C5(C)CCN(C6CN(c7ccc8c(c7)C(=O)N(C7CCC(=O)NC7=O)C8=O)C6)CC5)cc4)n2)C3)C1=O (stereo not shown) [Compound 105, 5-((4-(1-(1-(2-(2,6-dioxopiperidin-3-yl)-1,3-dioxoisoindol-5-yl)azetidin-3-yl)-4-methylpiperidin-4-yl)phenyl)amino)-3-(6-(3-methyl-2-oxoimidazolin-1-yl)-2-azabicyclo[2.2.1]heptan-2-yl)-1,2,4-triazin-6-carboxamide]",< 1 nM
17,"CN1CCN([C@@H]2CCCN(c3nnc(C(N)=O)c(Nc4ccc(N5CCN(CC#Cc6ccc(NC7CCC(=O)NC7=O)c7ocnc67)CC5)c(F)c4)n3)C2)C1=O (stereo partly drawn) [Compound 229, 5-((4-(4-(3-(7-((2,6-dioxopiperidin-3-yl)amino)benzo[d]oxazol-4-yl)propan-2-yn-1-yl)piperazin-1-yl)-3-fluorophenyl)amino)-3-((R)-3-(3-methyl-2-oxoimidazolidin-1-yl)piperidin-1-yl)-1,2,4-triazin-6-carboxamide]",< 1 nM
18,"CN1CCN([C@@H]2CCCN(c3nnc(C(N)=O)c(Nc4ccc(C5CCN(C[C@H]6CCN(c7cc8c(cc7F)C(=O)N(C7CCC(=O)NC7=O)C8=O)C6)CC5)cc4)n3)C2)C1=O (stereo partly drawn) [Compound 156, 5-((4-(1-(((3R)-1-(2-(2,6-dioxopiperidin-3-yl)-6-fluoro-1,3-dioxoisoindolin-5-yl)pyrrolidin-3-yl)methyl)piperidin-4-yl)phenyl)amino)-3-((R)-3-(3-methyl-2-oxoimidazolin-1-yl)piperidin-1-yl)-1,2,4-triazin-6-carboxamide]",< 1 nM
19,"NC(=O)c1ncc(N2CCCC(N3CCN(C4CCCC4)C3=O)C2)nc1Nc1ccc(C2CCN(CC3CCN(c4ccc5c(c4)C(=O)N(C4CCC(=O)NC4=O)C5=O)C3)CC2F)cc1 (stereo not shown) [Compound 043, 5-(3-(3-cyclopentyl-2-oxoimidazolin-1-yl)piperidin-1-yl)-3-((4-(1-((1-(2-(2,6-dioxopiperidin-3-yl)-1,3-dioxoisoindolin-5-yl)pyrrolidin-3-yl)methyl)-3-fluoropiperidin-4-yl)phenyl)amino)pyrazin-2-carboxamide]",> 1 nM
